Earlier results, collected in publication PMC8302504, “Efficacy of Fenfluramine and Norfenfluramine Enantiomers and Various Antiepileptic Drugs in a Zebrafish Model of Dravet Syndrome” (Neurochemical Research, 2021).

Settings: 5 dpf zebrafish larvae, 1 h incubation with 15 µg/mL; cited from earlier work

Question: Which “head uptake (recovered concentration)” value does the source give for `O=C(CCCN1CCC(O)(c2ccc(Cl)cc2)CC1)c1ccc(F)cc1` [haloperidol] here?
Answer: The value was 21.6 µg/g.
